Patent US9809562B2, “NAT10 modulators for treating or preventing laminopathies, aging and cancer” (CAMBRIDGE ENTERPRISE LIMITED, priority 2014, dated 2017)
Structures can show the parent of a compound that is named as a salt.

Tests used:
siLMNA cells = assay: Micrococcal nuclease digestion sensitivity assay and nuclear area (chromatin compaction); format: cell-based, human
Protocol: CellProfiler software was used to quantify nuclear circularity and nuclear area from DAPI staining pictures, using the “object size shape” measurement. The AreaShape measurement allowed the calculation of the Form Factor index ([…]) corresponding to circularity (a Form Factor of 1 reflecting a perfect circle), as well as the calculation of nuclear Area.
1×10^6 cells were trypsinized, harvested, and washed once with 1 ml of 1×RSB buffer (10 mM Tris, pH 7.6, 15 mM NaCl, and 1.5 mM MgCl2). After centrifugation ([…]), the cell pellet was resuspended in 1 ml of 1×RSB buffer with 1% Triton-X 100 and homogenized by five strokes with a loose-fitting glass pestle to release nuclei. Nuclei were collected by centrifugation (13,000×g) and washed twice with 1 ml of buffer A (15 mM Tris, pH 7.5, 15 mM NaCl, 60 mM KCl, 0.34 M sucrose, 0.5 mM spermidine, 0.15 mM spermine, 0.25 mM PMSF, and 0.1% β-mercaptoethanol). Nuclei were resuspended in Buffer A and aliquoted into 100 μl aliquots. […] DNA was purified using the Qiagen PCR purification kit and 1500 ng of DNA was analysed on a 1.5% agarose gel. Digestion profiles were analysed using ImageJ and values were adjusted relative to the global intensity of each lane to compensate for DNA loading variations.

[1] = tested on: cancer cell lines with low or high Lamin A/C expression; assay: Population doubling time of cancer cell lines; format: cell-based, human
Protocol: FIG. 15: Compound 2 inhibits the proliferation, migration and invasion of cancer cells with low Lamin A/C expression. […] C) Quantification of transwell migration assays and matrigel invasion assays from the indicated low expressing cancer cell lines after treatment with 50 μM of compound 2.

[2] = tested on: HGPS mice (Lmna^G609G/G609G); assay: Survival in mouse model of Hutchinson Gilford progeria syndrome; format: in vivo; settings: daily oral dose of 100 mg/kg/day from 3 weeks of age, vs vector only, n=10
Protocol: Middle panel of FIG. 25: HGPS mice were treated with a daily oral dose of 100 mg/kg/day of Compound 2 from 3 weeks of age and until culled due to >20% body weight loss. […] Right panel of FIG. 25: Global survival of HGPS mice (Lmna^G609G/G609G) treated with vector only (Lmna^G609G/G609G V) or with Compound 2 (Lmna^G609G/G609G2) showing a significant increase of the median survival of mice upon Compound 2 treatment (+25%). Number of mice/group n=10.

[3] = target: T1, NAT10 purified from HEK293 cells (Homo sapiens, UniProt Q9H0A0); assay: Lysine acetyltransferase (KAT) assay with tubulin substrate; format: biochemical; settings: compounds at 50 μM
T1 construct: made in house; host or cells: HEK293 (transient transfection, anti-FLAG immunopurification, elution with triple-Flag peptide)
T1 sequence (Q9H0A0 1-1025): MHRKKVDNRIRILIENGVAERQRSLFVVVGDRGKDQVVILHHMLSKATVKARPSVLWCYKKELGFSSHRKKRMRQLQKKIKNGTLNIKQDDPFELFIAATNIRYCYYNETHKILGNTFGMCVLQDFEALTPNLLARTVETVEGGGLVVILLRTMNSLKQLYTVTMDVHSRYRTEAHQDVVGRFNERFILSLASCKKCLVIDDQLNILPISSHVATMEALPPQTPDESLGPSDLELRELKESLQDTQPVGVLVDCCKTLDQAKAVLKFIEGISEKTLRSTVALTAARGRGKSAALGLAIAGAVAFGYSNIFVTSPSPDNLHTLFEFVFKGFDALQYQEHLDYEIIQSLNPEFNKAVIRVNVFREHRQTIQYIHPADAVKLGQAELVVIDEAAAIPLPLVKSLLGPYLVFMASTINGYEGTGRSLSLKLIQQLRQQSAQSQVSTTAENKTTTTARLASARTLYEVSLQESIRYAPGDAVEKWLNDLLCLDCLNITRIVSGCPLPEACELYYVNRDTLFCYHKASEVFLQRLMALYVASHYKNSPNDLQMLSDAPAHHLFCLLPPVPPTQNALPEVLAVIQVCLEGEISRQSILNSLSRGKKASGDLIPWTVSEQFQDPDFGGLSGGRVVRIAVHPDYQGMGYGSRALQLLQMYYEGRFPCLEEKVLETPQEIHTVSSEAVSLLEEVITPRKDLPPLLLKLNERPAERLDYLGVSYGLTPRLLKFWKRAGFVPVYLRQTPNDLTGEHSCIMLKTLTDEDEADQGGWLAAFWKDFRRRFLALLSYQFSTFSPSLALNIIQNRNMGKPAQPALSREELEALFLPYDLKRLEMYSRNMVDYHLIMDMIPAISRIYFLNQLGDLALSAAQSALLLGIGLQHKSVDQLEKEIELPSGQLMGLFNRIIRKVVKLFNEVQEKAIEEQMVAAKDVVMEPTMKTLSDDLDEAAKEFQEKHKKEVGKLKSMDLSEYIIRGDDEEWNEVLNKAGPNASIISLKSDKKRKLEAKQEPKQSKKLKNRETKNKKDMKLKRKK
Protocol: HEK293 cells were transiently transfected with NAT10 constructs and harvested after 48 hours in PBS. Cells were lysed for 5 minutes at room temperature in IP lysis buffer (20 mM Tris pH 7.5, 40 mM NaCl, 2 mM MgCl2, 0.5% NP-40) freshly supplemented with 50 U/ml benzonase and EDTA-free protease inhibitor cocktail (Roche). After this initial lysis step, NaCl concentration was adjusted to 450 mM and samples were incubated at 4° C. with rotation. Lysates were clarified by centrifugation (13,200 rpm, 20 minutes at 4° C.), and after recovery NaCl concentration was equilibrated to 150 mM. Lysates were used for immunoprecipitation reaction in IP buffer (25 mM Tris pH 7.5, 150 mM NaCl, 1.5 mM DTT, 10% glycerol, 0.5% NP-40) supplemented with protease inhibitors. Target proteins were captured with anti-FLAG antibody (M2, Sigma-Aldrich) coupled to protein A/G-Dynabeads (Life Sciences). Complexes were washed with IP buffer containing incrementally increasing amounts of NaCl (250 mM, 500 mM, and 1M). Following this, the immuno-complexes were washed in TBS containing gradually decreasing amounts on NaCl (1M, 500 mM, 250 mM, and 150 mM). At this point, elution was carried out using excess triple-Flag peptide (Sigma Aldrich). Eluted proteins were loaded on a gel and the purification was verified by Silver Staining (SilverQuest kit, Life Sciences). […]

Structure (SMILES)	global chromatin compaction (MNase sensitivity) (siLMNA cells)	nuclear area (siLMNA cells)	population doubling time, sensitivity by Lamin A level ([1]; 50 μM for 1 week)	increase of the median survival [2]	NAT10 WT KAT activity towards tubulin [3]	proliferation of cells expressing high levels of lamin A/C ([1]; up to 50 μM)
Clc1ccc(-c2csc(NN=C3CCCC3)n2)cc1 [Compound 2, 4-(4-Chlorophenyl)-2-(2-cyclopentylidenehydrazinyl)thiazole Hydrochloride Salt]	decreased MNase sensitivity	reduced nuclear area	cells expressing low levels of Lamin A are more sensitive to the molecule	+25%		
N#Cc1ccc(-c2csc(NN=C3CCCC3)n2)cc1 [Compound 1, 4-(4-Cyanophenyl)-2-(2-cyclopentylidenehydrazinyl)thiazole]					abolished NAT10 WT KAT activity	not affected by up to 50 μM Remodelin
C#CCN(N=C1CCCC1)c1nc(-c2ccc(Cl)cc2)cs1 [Compound 3, 4-(4-Chlorophenyl)-2-(2-cyclopentylidene-1-(prop-2-yn-1-yl)hydrazinyl)thiazole]					abolished NAT10 WT KAT activity	
